US7026315B1, “Fungicide mixtures which are based on derivatives of morpholine or piperidine and derivatives oxime ether” (BASF Aktiengesellschaft, priority 1998, dated 2006)

Test system: mildew of wheat (Erysiphe graminis forma specialis tritici)
Test: Activity against mildew of wheat (protective spray on potted wheat seedlings)
Type: in vivo
Settings: wheat seedlings cv. Kanzler, inoculated 24 h after spraying, evaluated after 7 days
Description: The active compounds, separately or together, are formulated as a 10% emulsion in a mixture of 63% by weight of cyclohexanone and 27% by weight of emulsifier, and diluted with water to the desired concentration.
Evaluation is carried out by determining the infected leaf areas in percent. These percentages are converted into efficacies. The efficacy (W) is calculated as follows using Abbot's formula: W=(1−α/β)·100 α corresponds to the fungal infection of the treated plants in % and β corresponds to the fungal infection of the untreated (control) plants in %
An efficacy of 0 means that the infection level of the treated plants corresponds to that of the untreated control plants; an efficacy of 100 means that the treated plants were not infected.
The expected efficacies of the mixtures of the active compounds were determined using Colby's formula [F. S. Colby, Weeds 15, 20–22 (1967)] and compared with the observed efficacies. • Colby's formula: E=x+y−x·y/100 E expected efficacy, expressed in % of the untreated control, when using the mixture of the active compounds A and B at the concentrations a and b x efficacy, expressed in % of the untreated control, when using active compound A at a concentration of a y efficacy, expressed in % of the untreated control, when using active compound B at a concentration of b.
Leaves of potted wheat seedlings cv. “Kanzler” were sprayed to runoff point with an aqueous preparation of active compound which was prepared from a stock solution comprising 10% of active compound, 63% of cyclohexanone and 27% of emulsifier and, 24 h after the spray coating had dried on, dusted with spores of mildew of wheat (Erysiphe graminis forma specialis tritici). The test plants were subsequently placed in climatized chambers at 20–24° C. and 60–90% relative atmospheric humidity for 7 days. The extent of the development of the infection on the leaves was then determined visually.
The visually determined values for the percentage of infected leaf areas were converted into efficacies as % of the untreated control. An efficacy of 0 means the same degree of infection as in the untreated control, an efficacy of 100 means 0% infection. The expected efficacies for active compound combinations were determined using Colby's formula (Colby, S. R. “Calculating synergistic and antagonistic responses of herbicide combinations”, Weeds, 15 (1967), 20–22) and compared with the observed efficacies.

| SMILES | Efficacy in % of the untreated control (0.25 ppm) | Efficacy in % of the untreated control (1 ppm) |
| --- | --- | --- |
| CC(Cc1ccc(C(C)(C)C)cc1)CN1C[C@@H](C)O[C@@H](C)C1 (stereo partly shown) [Compound I.a, Fenpropimorph] | 55% | – |
| CC(Cc1ccc(C(C)(C)C)cc1)CN1CCCCC1 (stereo not shown) [Compound I.b, Fenpropidin] | 55% | – |
| CCCCCCCCCCCCCN1CC(C)OC(C)C1 (stereo not shown) [Compound I.c, Tridemorph] | 0% | 0% |
